Measurements as given in BindingDB's records for doi:10.1128/AAC.37.4.810 (National Cancer Institute-Bethesda, 1993).

What follows are compounds tested against T1, Dimer of Gag-Pol polyprotein [489-587] (Human immunodeficiency virus 1, UniProt P12497) (assay: Protease Inhibition Assay). Conditions: pH 6.2; 37 °C.
T1 construct: 489-587
Description: Inhibition constants were determined by a fluorometric assay with the fluorogenic substrate Arg-Glu(EDANS)-Ser-Gln-Asn-Tyr-Pro-Ile-Val-Lys(DABCYL)-Arg. The data were analyzed with the mathematical model for tight-binding inhibitors in which the concentration of inhibitor is less than or equal to the enzyme concentration. The data were fitted by nonlinear regression analysis to the equation with program Enzfitter (version 1.05).
With `CSC[C@H](NC(=O)COc1cccc2cnccc12)C(=O)N[C@@H](Cc1ccccc1)[C@H](O)C(=O)N1CSC[C@H]1C(=O)NC(C)(C)C` [Kynostatin 272] the Ki was 5.5 pM.
In the case of `CSC[C@H](NC(=O)COc1cccc2cnccc12)C(=O)N[C@@H](Cc1ccccc1)[C@H](O)C(=O)N1CSC(C)(C)[C@H]1C(=O)NC(C)(C)C`, the Ki is reported as 2.3 pM.
`CC(C)(C)NC(=O)[C@H]1N(C(=O)[C@@H](O)[C@H](Cc2ccccc2)NC(=O)[C@H](CC(N)=O)NC(=O)COc2cccc3ccccc23)CSC1(C)C` [Noa-Asn-Apns-Dmt-NH-tBu] gave a Ki of 6.8 pM.
